Assay results taken from US11840686B2, “Modulation of prekallikrein (PKK) expression” (Ionis Pharmaceuticals, Inc., priority 2013, dated 2023).
Strand notation (5' to 3'): a small letter for the sugar, then the base; units joined by * are phosphorothioate-linked, units joined directly phosphodiester-linked; [ ] holds rarer units or linkages, { } end groups; capitals alone tell only the bases. e = 2'-O-(2-methoxyethyl) (MOE); [5mC] = 5-methylcytosine; d = 2'-deoxy (DNA)

These substances were tested on human PKK mRNA (assay: Antisense inhibition of human PKK mRNA in HepaRG cells, 5,000 nM (Example 2)). Settings: HepaRG cells, 5,000 nM antisense oligonucleotide, human PKK mRNA; Table 18.
Format: cell-based
Summary of the method: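 Percent inhibition of PKK mRNA is reported relative to untreated cells, after adjustment for total RNA by RIBOGREEN. Gapmers of 16–20 nucleosides with 2′-MOE wings were delivered at 5,000 nM by electroporation into HepaRG cells and left for roughly 24 hours before RNA isolation.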

“548717 (DNA eA*e[5mC]*eT*dA*dG*dT*dT*dT*d[5mC]*d[5mC]*dT*dA*dT*eA*eA*e[5mC]*eT; antisense) [compound 548717]” was tested, and the “% inhibition” value was 0%.

Same assay, conditions: HepaRG cells, 5,000 nM antisense oligonucleotide; 5-10-5 gapmers; Table 16

Compared with “547677 (antisense e[5mC]*eA*eT*e[5mC]*eA*d[5mC]*dT*dG*dT*d[5mC]*d[5mC]*dT*dA*dT*dA*eA*e[5mC]*eT*eA*eT) [compound 547677]”, “546942 (eT*eA*e[5mC]*eA*e[5mC]*dT*dG*dA*dA*d[5mC]*d[5mC]*d[5mC]*d[5mC]*d[5mC]*dT*eT*eA*eG*eG*e[5mC]; antisense) [compound 546942]” is lower in “% inhibition” value: 62% for the first, 56% for the second.

Same assay, conditions: HepaRG cells, 5,000 nM antisense oligonucleotide; 5-10-5 gapmers; Table 17

For “547723 (eT*eA*eG*eA*eA*dT*dG*dG*d[5mC]*dA*dG*dG*dG*dT*dT*e[5mC]*eT*eG*eT*eG; antisense) [compound 547723]”, the “% inhibition” value was 53%.

Same assay, conditions: HepaRG cells, electroporation with 5,000 nM antisense oligonucleotide, approximately 24 hours, PKK mRNA by RT-PCR (RTS3454), relative to untreated control cells; Table 5 experiment

First: 546160 (eA*e[5mC]*eT*eG*eA*dA*dT*dA*dG*d[5mC]*dA*dA*dA*d[5mC]*dA*e[5mC]*e[5mC]*eT*eT*eG; antisense) [compound 546160]
Second: 547310 (antisense eA*eT*e[5mC]*eT*eT*dT*d[5mC]*dA*dA*dG*dA*dA*dG*d[5mC]*dA*eA*e[5mC]*e[5mC]*eA*eA) [compound 547310]
The “% inhibition” value of the first is lower: 78% for the first, 81% for the second.

First: 546140 (eG*e[5mC]*eT*eT*eG*d[5mC]*dT*dT*dG*dA*dA*dT*dA*dA*dA*eA*eT*e[5mC]*eA*eT; antisense) [compound 546140]
Second: 547297 (antisense eT*eG*eG*eA*eA*dT*dG*dT*dG*d[5mC]*dA*d[5mC]*d[5mC]*dT*d[5mC]*eA*eT*e[5mC]*eT*eG) [compound 547297]
The “% inhibition” value of the first is lower: 60% for the first, 84% for the second.

Going from “547292 (antisense eT*eA*e[5mC]*eA*eT*dG*dG*dA*dA*dG*d[5mC]*dT*dA*d[5mC]*dA*eT*e[5mC]*e[5mC]*e[5mC]*e[5mC]) [compound 547292]” to “547302 (antisense e[5mC]*e[5mC]*eA*eT*eG*dT*d[5mC]*dA*dT*dT*dG*dA*dT*dT*dG*eA*eA*e[5mC]*eT*eT) [compound 547302]”, the “% inhibition” value falls from 60% to 58%.

Same assay, conditions: HepaRG cells, electroporation with 5,000 nM antisense oligonucleotide, approximately 24 hours, PKK mRNA by RT-PCR (RTS3454), relative to untreated control cells; Table 6 experiment

In the case of “546213 (antisense e[5mC]*e[5mC]*e[5mC]*eT*eG*dG*d[5mC]*dA*dA*d[5mC]*dA*dT*d[5mC]*d[5mC]*dA*e[5mC]*eA*eT*e[5mC]*eT) [compound 546213]”, the “% inhibition” value is reported as 82%.

Same assay, conditions: HepaRG cells, electroporation, 5,000 nM antisense oligonucleotide, approx. 24 hours, primer probe set RTS3454, relative to untreated control cells; Table 11

Going from “547499 (antisense e[5mC]*eT*e[5mC]*eT*eG*dG*dA*d[5mC]*dT*dG*d[5mC]*dT*dT*d[5mC]*dT*e[5mC]*eA*eT*eG*e[5mC]) [compound 547499]” to “546381 (antisense eG*eA*eA*eG*eA*dT*dG*d[5mC]*d[5mC]*dA*d[5mC]*dT*d[5mC]*dT*d[5mC]*e[5mC]*eA*eT*eG*e[5mC]) [compound 546381]”, the “% inhibition” value rises from 65% to 73%.

For “546383 (antisense eG*eG*eA*eT*eG*d[5mC]*dA*dA*dA*dG*dA*dA*dG*dA*dT*eG*e[5mC]*e[5mC]*eA*e[5mC]) [compound 546383]”, the “% inhibition” value was 57%.

Same assay, conditions: Table 7; HepaRG cells, electroporation with 5,000 nM antisense oligonucleotide, approx. 24 hours; PKK mRNA by RT-PCR (RTS3454), relative to untreated control cells

First: 547382 (e[5mC]*eT*eT*eT*eG*dT*dG*dA*d[5mC]*dT*d[5mC]*dG*dA*dT*dT*eT*eT*e[5mC]*e[5mC]*eA; antisense) [compound 547382]
Second: 547380 (eT*eG*eA*e[5mC]*eT*d[5mC]*dG*dA*dT*dT*dT*dT*d[5mC]*d[5mC]*dA*eT*eA*e[5mC]*eA*eT; antisense) [compound 547380]
The “% inhibition” value of the first is higher: 62% for the first, 42% for the second.

“547365 (eT*eG*eA*eG*eA*dA*d[5mC]*d[5mC]*d[5mC]*dT*dG*dG*d[5mC]*dA*dA*e[5mC]*eA*eT*e[5mC]*e[5mC]; antisense) [compound 547365]” was tested, and the “% inhibition” value was 81%.

Same assay, conditions: Table 8; HepaRG cells, electroporation with 5,000 nM antisense oligonucleotide, approx. 24 hours; PKK mRNA by RT-PCR (RTS3454), relative to untreated control cells

Going from “546302 (antisense eT*eG*eA*eG*eA*dA*dA*dG*dG*dT*dG*dT*dA*dT*d[5mC]*eT*eT*eT*eT*eG) [compound 546302]” to “547427 (eA*eA*eG*eA*eG*dT*dA*dA*d[5mC]*d[5mC]*dA*dG*dA*dG*d[5mC]*eT*e[5mC]*e[5mC]*e[5mC]*eT; antisense) [compound 547427]”, the “% inhibition” value falls from 87% to 79%.

Going from “546290 (antisense e[5mC]*e[5mC]*e[5mC]*e[5mC]*eA*dA*dG*dA*dA*dG*dA*dG*dT*dT*dT*eG*eT*eT*e[5mC]*e[5mC]) [compound 546290]” to “547439 (antisense eT*e[5mC]*eT*eG*eA*dG*d[5mC]*dT*dG*dT*d[5mC]*dA*dG*d[5mC]*dT*eT*e[5mC]*eA*e[5mC]*e[5mC]) [compound 547439]”, the “% inhibition” value falls from 86% to 85%.

Compared with “546299 (antisense eA*eT*eG*e[5mC]*e[5mC]*dA*d[5mC]*dT*dA*dT*dA*dG*dA*dT*dG*e[5mC]*eG*e[5mC]*e[5mC]*eA) [compound 546299]”, “546277 (eT*eG*eT*eG*eT*d[5mC]*d[5mC]*d[5mC]*dA*dT*dA*d[5mC]*dG*d[5mC]*dA*eA*eT*e[5mC]*e[5mC]*eT; antisense) [compound 546277]” is higher in “% inhibition” value: 84% for the first, 90% for the second.

Same assay, conditions: Table 9 experiment; HepaRG cells, 20,000 cells per well, electroporation with 5,000 nM antisense oligonucleotide, approx. 24 hours; PKK mRNA by RT-PCR (RTS3454), relative to untreated control cells

Compared with “547465 (antisense eA*eA*eA*eT*eT*dG*dT*dG*d[5mC]*dT*dT*dG*dT*dG*dT*e[5mC]*eA*e[5mC]*e[5mC]*eT) [compound 547465]”, “547479 (antisense eT*eA*eT*eA*eA*dT*d[5mC]*dT*dT*dG*dA*dT*dA*dT*d[5mC]*eT*eT*eT*eT*e[5mC]) [compound 547479]” is lower in “% inhibition” value: 88% for the first, 48% for the second.

Going from “546349 (antisense eG*eT*eG*eT*eT*dT*dG*d[5mC]*dA*dA*dA*d[5mC]*dT*dA*dA*eG*eG*eG*eA*e[5mC]) [compound 546349]” to “547448 (antisense eT*eT*eA*eT*eT*dT*dG*dT*dG*dA*dG*dA*dA*dA*dG*eG*eT*eG*eT*eA) [compound 547448]”, the “% inhibition” value rises from 48% to 75%.

Same assay, conditions: Table 10 experiment; HepaRG cells, 20,000 cells per well, electroporation with 5,000 nM antisense oligonucleotide, approx. 24 hours; PKK mRNA by RT-PCR (RTS3454), relative to untreated control cells

Going from “547465 (antisense eA*eA*eA*eT*eT*dG*dT*dG*d[5mC]*dT*dT*dG*dT*dG*dT*e[5mC]*eA*e[5mC]*e[5mC]*eT) [compound 547465]” to “547479 (antisense eT*eA*eT*eA*eA*dT*d[5mC]*dT*dT*dG*dA*dT*dA*dT*d[5mC]*eT*eT*eT*eT*e[5mC]) [compound 547479]”, the “% inhibition” value falls from 85% to 9%.

Going from “546349 (antisense eG*eT*eG*eT*eT*dT*dG*d[5mC]*dA*dA*dA*d[5mC]*dT*dA*dA*eG*eG*eG*eA*e[5mC]) [compound 546349]” to “547448 (antisense eT*eT*eA*eT*eT*dT*dG*dT*dG*dA*dG*dA*dA*dA*dG*eG*eT*eG*eT*eA) [compound 547448]”, the “% inhibition” value rises from 35% to 83%.

Same assay, conditions: Table 13; human PKK mRNA in HepaRG cells; 5-10-5 gapmers

Compared with “546803 (e[5mC]*e[5mC]*e[5mC]*e[5mC]*eA*dT*dA*d[5mC]*dA*dT*d[5mC]*dT*dA*dT*dG*e[5mC]*eA*eA*eA*eT; antisense) [compound 546803]”, “547577 (e[5mC]*eT*eA*eA*e[5mC]*dA*dG*dT*dA*dT*d[5mC]*dA*d[5mC]*dT*dG*eT*eA*e[5mC]*eT*eA; antisense) [compound 547577]” is higher in “% inhibition” value: 40% for the first, 79% for the second.

For “547581 (eA*eT*eA*eT*e[5mC]*dA*d[5mC]*dT*dG*dT*d[5mC]*d[5mC]*dT*dA*dT*eA*eA*e[5mC]*eT*e[5mC]; antisense) [compound 547581]”, the “% inhibition” value was 60%.

Same assay, conditions: human PKK mRNA in HepaRG cells; 5-10-5 gapmers; Table 14

Compared with “546868 (eT*eA*e[5mC]*e[5mC]*eT*dA*dT*dA*dA*d[5mC]*dT*d[5mC]*dT*dA*dA*e[5mC]*eA*eG*eT*eA; antisense) [compound 546868]”, “546884 (eA*e[5mC]*eT*eA*eG*dT*dT*dT*d[5mC]*d[5mC]*dT*dA*dT*dA*dA*e[5mC]*eA*eG*eT*eA; antisense) [compound 546884]” is lower in “% inhibition” value: 51% for the first, 6% for the second.

Going from “546858 (e[5mC]*eT*eA*eT*eA*dA*d[5mC]*dT*dA*dT*dA*dA*d[5mC]*dA*dG*eT*eA*eT*e[5mC]*eA; antisense) [compound 546858]” to “546875 (eA*e[5mC]*eT*eA*eT*dA*dA*d[5mC]*dA*dA*dT*dA*dT*d[5mC]*dA*e[5mC]*eT*eG*eT*eA; antisense) [compound 546875]”, the “% inhibition” value rises from 21% to 33%.

Compared with “547592 (eT*e[5mC]*e[5mC]*eT*eA*dT*dA*dA*d[5mC]*dT*dA*dT*dA*dA*d[5mC]*eA*eG*eT*eA*eT; antisense) [compound 547592]”, “547605 (antisense eA*e[5mC]*eA*eA*eT*dA*dT*d[5mC]*dA*d[5mC]*dT*dG*dT*dA*d[5mC]*e[5mC]*eT*eA*eT*eA) [compound 547605]” is higher in “% inhibition” value: 27% for the first, 43% for the second.

“547596 (antisense eT*eA*e[5mC]*eT*eA*dG*dT*dT*dT*d[5mC]*d[5mC]*dT*dA*dT*dA*eA*e[5mC]*eT*eA*eT) [compound 547596]” was tested, and the “% inhibition” value was 14%.

Same assay, conditions: human PKK mRNA, HepaRG cells, 5,000 nM antisense oligonucleotide, Table 18

Going from “548759 (antisense eA*eA*e[5mC]*eA*dG*dT*dA*dT*d[5mC]*dA*d[5mC]*dT*dG*eT*eA*e[5mC]*eT) [compound 548759]” to “548732 (DNA eA*e[5mC]*eT*eG*dT*dA*d[5mC]*dT*dA*dG*dT*dT*dT*d[5mC]*e[5mC]*eT*eA; antisense) [compound 548732]”, the “% inhibition” value falls from 68% to 36%.

“548751 (antisense eA*e[5mC]*eT*eG*dT*dA*d[5mC]*dT*dA*dG*dT*dT*dT*d[5mC]*e[5mC]*eT*eA*eT) [compound 548751]” was tested, and the “% inhibition” value was 53%.

Same assay, conditions: human PKK mRNA, HepaRG cells; 5-10-5 motif oligonucleotides targeting SEQ ID NO: 1 and 10

“546908 (eT*e[5mC]*eA*e[5mC]*eT*dG*dT*dA*d[5mC]*d[5mC]*dT*dA*dT*dA*dA*e[5mC]*eT*eA*eT*eA; antisense) [compound 546908]” and “546895 (eT*eA*eT*e[5mC]*eA*d[5mC]*dT*dG*dT*d[5mC]*d[5mC]*dT*dA*dT*dG*eT*e[5mC]*eA*e[5mC]*eT; antisense) [compound 546895]” are the same in “% inhibition” value: 77% for the first, 77% for the second.
